Legend:
Rattus norvegicus [1] = experiment: Antiinflammatory activity in rat assessed as inhibition of carrageenan-induced paw edema after 3 hrs; type: functional
Rattus norvegicus [2] = experiment: Antiinflammatory activity in rat assessed as inhibition of carrageenan-induced paw edema at 100 mg/kg, po after 3 hrs; type: functional
[3] = target: T1, Prostaglandin G/H synthase 1 (Ovis aries, UniProt P05979)
T1 sequence (P05979 whole entry): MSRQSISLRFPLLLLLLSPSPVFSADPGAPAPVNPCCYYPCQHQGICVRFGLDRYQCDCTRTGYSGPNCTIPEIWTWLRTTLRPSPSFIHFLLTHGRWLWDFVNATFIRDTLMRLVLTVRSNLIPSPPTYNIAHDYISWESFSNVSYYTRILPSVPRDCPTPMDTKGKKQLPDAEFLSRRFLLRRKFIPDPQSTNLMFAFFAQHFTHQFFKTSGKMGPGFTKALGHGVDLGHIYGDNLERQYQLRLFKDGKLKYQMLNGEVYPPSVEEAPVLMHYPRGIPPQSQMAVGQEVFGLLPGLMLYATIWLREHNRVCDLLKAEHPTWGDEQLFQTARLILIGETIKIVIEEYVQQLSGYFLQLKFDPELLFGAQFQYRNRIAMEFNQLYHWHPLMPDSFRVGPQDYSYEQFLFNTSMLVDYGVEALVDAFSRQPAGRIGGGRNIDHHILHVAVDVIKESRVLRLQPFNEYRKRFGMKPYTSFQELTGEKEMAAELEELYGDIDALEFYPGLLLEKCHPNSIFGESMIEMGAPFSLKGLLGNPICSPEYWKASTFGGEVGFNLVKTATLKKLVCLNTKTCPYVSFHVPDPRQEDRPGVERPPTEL
Description: Inhibition of sheep COX1 by enzyme immunoassay

IC50 [3] [µM] | Compound | ED50 (Rattus norvegicus [1]) [µmol/kg] | inhibition in vivo at 100 mg/kg (Rattus norvegicus [2]) [%]
– | NS(=O)(=O)c1ccc(-n2nc(C(F)(F)F)cc2-c2ccc(/[N+]([O-])=N\O)cc2)cc1 | 168 | 65.7
10.5 | CO/N=[N+](/[O-])c1ccc(-c2cc(C(F)(F)F)nn2-c2ccc(S(C)(=O)=O)cc2)cc1 | – | 9.8
12.1 | CO/N=[N+](/[O-])c1ccc(-c2cc(C(F)(F)F)nn2-c2ccc(S(N)(=O)=O)cc2)cc1 | 241 | 47.7
17 | CC(=O)OC(C)O/N=[N+](/[O-])c1ccc(-c2cc(C(F)(F)F)nn2-c2ccc(S(C)(=O)=O)cc2)cc1 (stereo unspecified) | – | 5.1
11.3 | CC(=O)OC(C)O/N=[N+](/[O-])c1ccc(-c2cc(C(F)(F)F)nn2-c2ccc(S(N)(=O)=O)cc2)cc1 (stereo unspecified) | – | 18.6
